Reference: PMC7069095, “A cell-permeable peptide-based PROTAC against the oncoprotein CREPT proficiently inhibits pancreatic cancer” (Theranostics, 2020)
Blank lines part the entries; values can stand above or below the molecule they belong to. Non-standard residues stand in square brackets, D forms with d. Residues, ends and D or L forms follow the SMILES beside them. No end group written: not given here. *: point of attachment. FITC = O=C1OC2(c3ccc(O)cc3Oc3cc(O)ccc32)c2ccc(NC(=S)*)cc21; Hyp = O=C(O)[C@@H]1C[C@@H](O)CN1; Cbz = O=C(OCc1ccccc1)*; Ahx = NCCCCCC(=O)O

Tests used:
[1] = target: T1, endogenous CREPT protein in Panc-1 cells (Homo sapiens, UniProt Q9NQG5); assay: Western blot of endogenous CREPT (degradation); type: cell-based; conditions: 24 h incubation with 10 μM PRTC
T1 construct: endogenous protein level of CREPT in Panc-1, AsPc-1 and MIA-PaCa-2 cells; endogenous in cells; host or cells: Panc-1, AsPc-1, MIA PaCa-2
T1 sequence (Q9NQG5 1-326): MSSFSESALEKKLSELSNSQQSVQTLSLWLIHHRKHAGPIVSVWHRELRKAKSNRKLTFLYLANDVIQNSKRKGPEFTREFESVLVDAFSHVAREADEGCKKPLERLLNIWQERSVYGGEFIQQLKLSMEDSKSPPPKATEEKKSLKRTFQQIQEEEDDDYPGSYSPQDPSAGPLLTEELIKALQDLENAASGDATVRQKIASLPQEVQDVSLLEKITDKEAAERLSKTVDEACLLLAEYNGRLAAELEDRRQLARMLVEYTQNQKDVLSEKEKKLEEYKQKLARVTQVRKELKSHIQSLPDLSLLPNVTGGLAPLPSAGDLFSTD
Method: For exogenous immunoprecipitation assays, HEK293T cells were plated in 60 mm dishes and then transfected with the indicated plasmids. After 24 h, cells were harvested using RIPA buffer (50 mM Tris-HCl pH 8.0, 2 mM EDTA pH 8.0, 150 mM NaCl, 1% NP-40, 0.5% sodium deoxycholate, 0.1% SDS) with mixed protease inhibitors. Cell lysates were incubated with 2 μg of the indicated antibodies and 30 μL of protein A/G-Sepharose beads at 4 °C overnight. Beads were eluted five times with lysis buffer (50 mM Tris-HCl pH 7.6, 1 mM EDTA pH 8.0, 165 mM NaCl, 0.5% NP-40), and thereafter, a western blot assay was performed to analyze the association by using the indicated antibodies. Western blot was performed as previously reported. Anti-β-actin and anti-Flag antibodies were purchased from Sigma. Anti-Myc antibody was purchased from Santa Cruz Biotechnology. Antibody against CREPT was produced in the laboratory.
To address whether PRTC could induce CREPT degradation, we examined the endogenous protein level of CREPT in Panc-1, AsPc-1 and MIA-PaCa-2 cells in the presence of different dosages of PRTC. […] Consistently, treatment with PRTC led to decreases in CREPT protein at different times (Figure 5B, S3A). […] To further visualize the degradation process, we stained the endogenous CREPT protein with an antibody against CREPT in the cells treated with FITC-labeled PRTC.
Figure 5 PRTC induces the ubiquitination and proteasome- dependent degradation of the endogenous CREPT protein. (A) Immunoblot of CREPT following 24 h incubation with different dosages of PRTC or PRTC-m in Panc-1 cells. (B) Immunoblot of CREPT exposed to 10 μM PRTC or PRTC-m for different times in Panc-1 cells. (C) Western blot analysis of CREPT following 24 h incubation with 10 μM PTRC in Panc-1 cells. MG132 is an inhibitor of proteasome activity. (D) Immunofluorescence visualization of Panc-1 cells after treatment with PRTC for 24 h. Cells were stained with anti-CREPT antibody. Scale bars, 20 μm.

Panc-1 cells [2] = assay: Confocal fluorescence imaging of FITC labeled peptides in cells; type: cell-based; conditions: confocal microscope, 10 μM FITC labeled peptides, Panc-1 cells
Method: (§1) To examine whether PRTC could permeate into pancreatic cancer cells, we synthesized fluorescein isothiocyanate (FITC) labeled PRTC, PRTC-m, PRTC-v, PRTC-r (PRTC without RRRRK) as well as TAT (a widely used cell penetrating peptide, as a positive control).
(§2) Figure 3 Identification of the permeability of PRTC in Panc-1 cells. (A) Entry of FITC- labeled peptides into Panc-1 cells tested by flow cytometry. FITC-TAT is the positive control. Measurements were performed in triplicate. (B) Quantification of cellular uptake of Panc-1 cells treated with different concentrations of FITC-PRTC. (C) Confocal microscope images of Panc-1 cells treated with 10 μM FITC labeled peptides. Scale bars, 10 μm. (D) Confocal microscope images of Panc-1 cells treated with different dosages of FITC-PRTC. Scale bars, 10 μm.

Panc-1 cells [3] = assay: Flow cytometry, entry of FITC-labeled peptides into cells; type: cell-based; conditions: flow cytometry, FITC-labeled peptides, 10 μM, Panc-1 cells, triplicate; in comparison with PRTC, PRTC-m or PRTC-v
Method: as §1, §2

[4] = target: T2, purified GST-CREPT protein (microscale thermophoresis and thermal shift assay) (UniProt Q9NQG5 1-326); assay: thermal shift assay; 5.33 μM purified CREPT protein in 50 mM Tris-HCl pH 8.0, 150 mM NaCl, SYPRO Orange, peptide or deionized H2O added; 25 to 70 °C at 1 °C/min; conditions: both partners purified
T2 construct: CREPT (also named RPRD1B); it may be the same as m2 or m3; also called GST-tagged CREPT; purified CREPT proteins; source: purified
T2 sequence (looked up): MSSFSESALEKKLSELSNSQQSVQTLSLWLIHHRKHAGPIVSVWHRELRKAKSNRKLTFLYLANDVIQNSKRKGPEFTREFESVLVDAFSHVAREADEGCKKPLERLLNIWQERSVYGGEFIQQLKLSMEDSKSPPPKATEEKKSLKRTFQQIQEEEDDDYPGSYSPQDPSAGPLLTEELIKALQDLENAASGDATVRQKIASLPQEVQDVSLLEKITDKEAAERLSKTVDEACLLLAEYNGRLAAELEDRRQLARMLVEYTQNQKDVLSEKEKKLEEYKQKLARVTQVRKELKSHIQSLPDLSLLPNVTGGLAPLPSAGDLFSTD

[5] = target: T2, purified GST-CREPT protein (microscale …); assay: MST; 100 nM FITC-labeled peptide kept constant, gradient dilutions of purified GST-CREPT; Microscale Thermophoresis NT.115, MO.AffinityAnalysis; conditions: both partners purified

Molecule: CC(C)C[C@@H](C=O)NC(=O)[C@H](CC(C)C)NC(=O)[C@H](CC(C)C)NC(=O)OCc1ccccc1 [MG132, reference compound] (Cbz-Leu-Leu-Leu-aldehyde)
- effect on PRTC-induced CREPT degradation [1]: completely abolished

B1: PRTC (peptide)
peptide: IY[Hyp]AL[Ahx]KDVLSEKEKKLEEYKQKLARVRRRRK
notes: VHL ligand IYP(OH)AL; the P is trans-4-hydroxy-L-proline; followed by the AHX linker; CREPT ligand (CL): leucine-zipper-like motif of CREPT (RPRD1B), lysine 266 to valine 286; transmembrane transport pentapeptide; The thermal shift assay names the peptide only as PRTC; also called cell-permeable peptide-based PROTAC against CREPT; source: synthetic peptide (ChinaPeptides Co., Ltd.), purified by …
- dTm (thermal shift) [4]: 6 °C

Results, then the molecule that gave them:

- localization of FITC labeled peptides in the cells (Panc-1 cells [2]): very weak localization
Molecule: CC[C@H](C)[C@H](NC(=O)CCCCCNC(=S)Nc1ccc2c(c1)C(=O)OC21c2ccc(O)cc2Oc2cc(O)ccc21)C(=O)N[C@@H](Cc1ccc(O)cc1)C(=O)N1C[C@H](O)C[C@H]1C(=O)N[C@@H](C)C(=O)N[C@@H](CC(C)C)C(=O)NCCCCCC(=O)N[C@@H](CCCCN)C(=O)N[C@@H](CC(=O)O)C(=O)N[C@H](C(=O)N[C@@H](CC(C)C)C(=O)N[C@@H](CO)C(=O)N[C@@H](CCC(=O)O)C(=O)N[C@@H](CCCCN)C(=O)N[C@@H](CCC(=O)O)C(=O)N[C@@H](CCCCN)C(=O)N[C@@H](CCCCN)C(=O)N[C@@H](CC(C)C)C(=O)N[C@@H](CCC(=O)O)C(=O)N[C@@H](CCC(=O)O)C(=O)N[C@@H](Cc1ccc(O)cc1)C(=O)N[C@@H](CCCCN)C(=O)N[C@@H](CCC(N)=O)C(=O)N[C@@H](CCCCN)C(=O)N[C@@H](CC(C)C)C(=O)N[C@@H](C)C(=O)N[C@@H](CCCNC(=N)N)C(=O)N[C@H](C(=O)O)C(C)C)C(C)C [FITC-PRTC-r] ({FITC-Ahx}-IY[Hyp]AL[Ahx]KDVLSEKEKKLEEYKQKLARV-OH)

- fluorescence intensity in the cells (cell entry) (Panc-1 cells [3]): obviously decreased
Molecule: IYP (OH) AL-AHX-KDVLSEKEKKLEEYKQKLARV [PRTC-r, PRTC without RRRRK]

- Kd [5]: 340 nM
B2: FITC-PRTC (peptide)
peptide: {FITC-Ahx}-IY[Hyp]AL[Ahx]KDVLSEKEKKLEEYKQKLARVRRRRK
notes: VHL ligand IYP(OH)AL; the P is trans-4-hydroxy-L-proline; followed by the AHX linker; CREPT ligand (CL): leucine-zipper-like motif of CREPT (RPRD1B), lysine 266 to valine 286; transmembrane transport pentapeptide; Peptide-based PROTAC: VHL ligand, AHX linker, CREPT ligand, RRRRK; also called FITC-labeled PRTC; source: synthetic peptide (ChinaPeptides Co., Ltd.), purified by HPLC
